Experimental data reported in US10006166B2, “Integrating the production of carboxylated cellulose nanofibrils and cellulose nanocrystals using recyclable organic acids” (The United States of America as Represented by the …, priority 2016, dated 2018).

Protocol: UV absorption spectrophotometric methods were employed for rapidly determining the soluble acid concentration in the solution. The UV-absorption spectra for oxalic, maleic, and toluenesulfonic acids are shown in FIGS. 3, 4, and 5, respectively.
The solubilities of oxalic, maleic, and toluenesulfonic acids at different temperatures were determined from UV absorption measurements in saturated solutions at different temperatures. The measured solubility data were fit to an exponential function as shown by Eq. (1). The maximum acid concentration that can be used at a given temperature can be determined from the exponential expression.
[formula] Where s0 and B are fitting constants and listed in TABLE 1 for the three acids studied while T is in degree Kelvin.

- Fitting constant B for predicting solubility using Eq. (1): 2,461
- Fitting constant s0 for predicting solubility using Eq. (1): 3.14 × 10^5
Compound: O=C(O)/C=C\C(=O)O [Maleic acid]
